Assay results: publication PMC9106035, “Synthesis, X-ray Structure and Biological Studies of New Self-Assembled Cu(II) Complexes Derived from s-Triazine Schiff Base Ligand” (Molecules, 2022)
In brackets after ≈: the same amount, converted by molar mass. Several values for one entry are separate records, joined by “and”; a condition that tells them apart may be missing. Identical values can stand only once. Like-named read-outs stand apart in the source and are kept apart here. Marks after values point to notes of the source that are not given here.

Legend:
[1] = test system: lung carcinoma A-549 cell line; assay: Anticancer activity, MTT viability assay; assay type: cell-based; details: A-549 cells, 24 h, MTT
Method: The studied compounds were examined for their anticancer activity against the lung carcinoma A-549 cell line.
Method S4 Evaluation of Cytotoxic activity
The cells were propagated in Dulbecco’s modified Eagle’s medium (DMEM) supplemented with 10% heat-inactivated fetal bovine serum, 1 % L-glutamine, HEPES buffer and 50µg/mL Gentamycin. All cells were maintained at 37 °C in a humidified atmosphere with 5% CO2 and were subcultured tw o times a week.
Cytotoxicity evaluation using viability assay
For cytotoxicity assay, the cells were seeded in 96-well plate at a cell concentration of 1×10^4 cells per well in 100µl of growth medium. Fresh medium containing different concentrations of the test sample was added after 24 h of seeding. Serial two-fold dilutions of the tested chemical compound were added to confluent cell monolayers dispensed into 96-well, flat-bottomed microtiter plates (Falcon, NJ, USA) using a multichannel pipette. The microtiter plates were incubated at 37 °C in a humidified incubator with 5% CO2 for a period of 24 h. Three wells were used for each concentration of the test sample. Control cells were incubated without test sample and with or without DMSO. The little percentage of DMSO present in the […]
cells for at 37°C, for 24 h, the viabl e cells yield was determined by the MTT test.
Briefly, the media was removed from the 96 well plate and replaced with 100 µL of fresh culture DMEM m edium without phenol red then 10 µL of the 12 mM MTT stock solution (5 mg of MTT in 1 mL of PBS) to each well including the untreated controls. The 96 well plates were then incubated at 37°C and 5% CO2 for 4 hours. An 85 µL aliquot of the media was removed from t he wells, and 50 µL of DMSO was added to each well and mixed thoroughly with the pipette and incubated at 37°C for 10 min. Then, the optical density was measured at 590 nm with the microplate reader (SunRise, TECAN, Inc, USA) to determine the number of viable cells and the percentage of viability was calculat ed as [(ODt/ODc)]x100% where ODt i s the mean optical density of wells treated with the tested s ample and ODc is the mean optical density of untreated cells. The relation between surviving cells and drug concentration is plotted to get the survival curve of each tumor cell line after treatment with the specified compound. The 50% inhibitory concentration (IC50), the concentration required to cause t oxic effects in 50% of intact cells, was estimated from graphic plots of the dose response curve for each conc. using Graphpad Prism software (San Diego, […]

[2] = DPPH radical scavenging assay; assay type: biochemical
Method: The studied Cu(II) complexes and the free ligands were assessed for their antioxidant activity levels using an α,α-diphenyl-β-picrylhydrazyl (DPPH) scavenging assay, and the results are given in Table 7. […] The results indicated better antioxidant activity for DMAT than for DMOHT, indicating the effect of the substituent at the phenyl moiety on the antioxidant activity level of the free ligand. […] On the other hand, the Cu(II) complexes have improved levels of antioxidant activity compared to the free ligands.
Method S3 DPPH Radical Scavenging Activity:
Freshly prepared (0.004 %w/v) methanol solution of 2,2-diphenyl-1-pi crylhydrazyl (DPPH) radical was prepared and stored at 10 °C in dark place. A methanolic solution of the test compound was prepared using the same procedure. A 40 uL aliquot of the methanol solution was added to 3mL of DPPH solution. Absorbance measurements were recorded immediately with a UV-visible spectrophotometer (Milton Roy, Spectronic 1201). The decrease in absorbance at 515 nm was determined continuously, with data being recorded at 1 min intervals until the absorbance stabilized (16 min). The absorbance of the DPPH radical without antioxidant (control) and the reference compound ascorbic acid were also measured.
All the determinations were performed in three replicates and averaged. The percentage inhibition (PI) of the DPPH radical was calculated according to the […]
PI = [{(AC- AT)/ AC} x 100] (1)
Where AC = Absorbance of the control at t = 0 min and AT = absorbance of the sample+DPPH at t = 16 min. The 50% inhibitory concentration (IC50), the concentration required t o inhibit DPPH radical by 50%, was estimated from graphic plots of the dose respons e curve.

[3] = test system: B. subtilis (RCMB015(1)NRR LB-543); assay: Agar well diffusion, inhibition zone; assay type: cell-based; details: 10 mg/mL of the tested compounds
Method: (§1) The antimicrobial activity of the free ligands and the corresponding Cu(II) complexes was determined against different categories of microbes (Table 5). All inhibition zones were determined at 10 mg/mL of the tested compounds. […] The largest inhibition zones were found for B. subtilis (25 mm), which is very close to the standard Gentamycin (26 mm). […] Complex 1 evidenced antimicrobial activity against all microbes except C. albicans.
(§2) Method S2: Antimi crobial studies a) Tested pathogenic microbes
(§3) The antibacterial a ctivity of the studied ligands and their Cu(II) complexes were evaluated against two Gram positive bacteria ((S. aureus (ATCC 25923) and B. subtilis (RCMB015(1)NRR LB-543)), two Gram negatvie bacteria ((E. coli (ATCC 25922) and P. vulgaris (RCMB 004(1)ATCC 13315)) and two fungi ((A. fumigatus […]
(§4) was used as standard antibacterial agent. The samples maintained in Brain heart infusion (BHI) at 20 °C; […] of each stock–c ulture was added to 3 mL of BHI broth. Overnight cultures were kept for 24 h at 37 °C ± 1 °C and the purity of cultures was checked aft er 24 h of incubation. […]
(§5) b) Agar well diffusion method
(§6) Synthetic compounds were prepared at concentration 10 mg/mL dissolved in DMSO as stock solutions. Preparation of sterilized Mueller Hinton agar plates seeded with tested pathogenic b acteria occurred. The wells are done by sterilized cork borer in size […]
(§7) comparably with DMSO as control. The plates were incubated at 37°C for 24 h. after incubation period; antimicrobial activity was d etermined by inhibition zones. […]

E. coli (ATCC 25922) [4] = assay: Agar well diffusion, inhibition zone; assay type: cell-based; details: 10 mg/mL of the tested compounds
Method: as §1, §2, §3, §4, §5, §6, §7

[5] = test system: P. vulgaris (RCMB 004(1)ATCC 13315); assay: Agar well diffusion, inhibition zone; assay type: cell-based; details: 10 mg/mL of the tested compounds
Method: as §1, §2, §3, §4, §5, §6, §7

S. aureus (ATCC 25923) [6] = assay: Agar well diffusion, inhibition zone; assay type: cell-based; details: 10 mg/mL of the tested compounds
Method: as §1, §2, §3, §4, §5, §6, §7

[7] = test system: B. subtilis (RCMB015(1)NRR LB-543); assay: Minimum Inhibitory Concentration (MIC); assay type: cell-based
Method: as §2, §3, §4
(§8) c) Minimum Inhibitory Concentration (MIC)
(§9) Different dilutions of the compounds are inoculat ed with tested pathogenic microbes.
(§10) After incubation period of 96 well microplate, the results are meas ured using microplate reader. To determine at what level the MIC endpoint is established; subculture of test samples at different concentrati ons occurred in nutrient agar plates.

E. coli (ATCC 25922) [8] = assay: Minimum Inhibitory Concentration (MIC); assay type: cell-based
Method: as §2, §3, §4, §8, §9, §10

[9] = test system: P. vulgaris (RCMB 004(1)ATCC 13315); assay: Minimum Inhibitory Concentration (MIC); assay type: cell-based
Method: as §2, §3, §4, §8, §9, §10

S. aureus (ATCC 25923) [10] = assay: Minimum Inhibitory Concentration (MIC); assay type: cell-based
Method: as §2, §3, §4, §8, §9, §10

[11] = test system: A. fumigatus (RCMB 002008); assay: Agar well diffusion, inhibition zone; assay type: cell-based; details: 10 mg/mL of the tested compounds
Method: as §1, §2, §3
was used as standard antibacterial agent. The samples maintained in Brain heart infusion (BHI) at 20 °C; […] of each stock–c ulture was added to 3 mL of BHI […]
broth. […]
(§11) 0.5). In case of fungi A. fumigatus (RCMB 002008) and C. albicans (RCMB 005003(1) ATCC 10231), the used medium in antagonistic activity against tested fungi is Potato Dextrose Agar, where Fluconazole was used standard antifungal agent. b) Agar well diffusion method
as §6, §7

[12] = test system: C. albicans (RCMB 005003(1) ATCC 10231); assay: Agar well diffusion, inhibition zone; assay type: cell-based; details: 10 mg/mL of the tested compounds
Method: as §1, §2
(§12) The antibacterial a ctivity of the studied ligands and their Cu(II) complexes were evaluated against two Gram positive bacteria ((S. aureus (ATCC 25923) and B. […]
as §11, §6, §7

[13] = test system: A. fumigatus (RCMB 002008); assay: Minimum Inhibitory Concentration (MIC); assay type: cell-based
Method: as §2, §12
(§13) 0.5). In case of fungi A. fumigatus (RCMB 002008) and C. albicans (RCMB 005003(1) ATCC 10231), the used medium in antagonistic activity against tested fungi is Potato Dextrose Agar, where Fluconazole was used standard antifungal agent. […]
as §8, §9, §10

[14] = test system: C. albicans (RCMB 005003(1) ATCC 10231); assay: Minimum Inhibitory Concentration (MIC); assay type: cell-based; details: Candida albicans, read-out: MIC
Method: as §2, §12, §13, §8, §9, §10

With `N.N.[Cl][Pt][Cl]` [cis-Platin, cis-platin, reference compound] as the molecule, how does the IC50 [1] read?
Its IC50 is 25 µM.

For `O=C1O[C@H]([C@@H](O)CO)C(O)=C1O` [Ascorbic Acid, ascorbic acid, reference compound], which “DPPH Scavenging %” value ([2]; Conc. 2.5 μg/mL) is on record?
The value was 34.57%.

And the “DPPH Scavenging %” value ([2]; Conc. 5 μg/mL)?
The value was 40.36%.

And the “DPPH Scavenging %” value ([2]; Conc. 10 μg/mL)?
Its value is 48.52%.

And the “DPPH Scavenging %” value ([2]; Conc. 20 μg/mL)?
Its value is 71.38%.

What about the “DPPH Scavenging %” value ([2]; Conc. 40 μg/mL) of the same molecule?
Its value is 83.09%.

And the “DPPH Scavenging %” value ([2]; Conc. 80 μg/mL)?
The value was 90.25%.

And the “DPPH Scavenging %” value ([2]; Conc. 160 μg/mL)?
Its value is 92.31%.

And the “DPPH Scavenging %” value ([2]; Conc. 320 μg/mL)?
The value was 95.64%.

And the “DPPH Scavenging %” value ([2]; Conc. 640 μg/mL)?
Its value is 97.83%.

What about the “DPPH Scavenging %” value ([2]; Conc. 1280 μg/mL) of the same molecule?
The value was 98.91%.

What about the “IC50 (DPPH scavenging)” value ([2]; antioxidant activity) of the same molecule?
Its value is 10.62 ± 0.84 µg/mL (≈ 60.3 µM).

For Gentamycin [reference compound], which Inhibition zone diameters [3] is on record?
The Inhibition zone diameters was 26 mm and 26 ^b mm.

What about the Inhibition zone diameters (E. coli (ATCC 25922) [4]) of the same molecule?
The Inhibition zone diameters was 30 ^b mm.

And the Inhibition zone diameters [5]?
Its Inhibition zone diameters is 25 ^b mm.

And the Inhibition zone diameters (S. aureus (ATCC 25923) [6])?
Its Inhibition zone diameters is 24 ^b mm.

What about the MIC [7] of the same molecule?
The MIC was 4.8 μg/mL and 4.8 ^b μg/mL.

And the MIC (E. coli (ATCC 25922) [8])?
Its MIC is 4.8 ^b μg/mL.

And the MIC [9]?
Its MIC is 4.8 ^b μg/mL.

And the MIC (S. aureus (ATCC 25923) [10])?
The MIC was 9.7 ^b μg/mL.

For `CC(=O)N1CCN(c2ccc(OCC3COC(Cn4ccnc4)(c4ccc(Cl)cc4Cl)O3)cc2)CC1` (stereo not shown) [Ketoconazole, reference compound], which Inhibition zone diameters [11] is on record?
Its Inhibition zone diameters is 17 mm and 17 ^a mm.

What about the Inhibition zone diameters [12] of the same molecule?
The Inhibition zone diameters was 20 ^a mm.

What about the MIC [13] of the same molecule?
Its MIC is 156.25 ^a μg/mL.

What about the MIC ([13]; Aspergillus fumigatus, RCMB002008, read-out: MIC) of the same molecule?
The MIC was 156 µg/mL (≈ 294 µM).

What about the MIC [14] of the same molecule?
Its MIC is 312 µg/mL (≈ 588 µM).
